Measurements from patent publication US20200121651A1, “Pramipexole for Use in the Treatment of Pain” (STC.UNM, priority 2018, published 2020).
Read-outs that look alike come from different tables or passages of the source.

Columns and labels:
allodynia in CCI mice = settings: for effect on allodynia (hindpaw absolute threshold): male CCI mice, i.v. injection day 10 post surgery, identical ipsilateral and contralateral
Protocol: The current report analyzed adult (10-16 week old) male C57BL/6 mice (wildtype; FFID: IMSR_JAX:000664) purchased from Jackson Laboratories (Bar Harbor, Me., USA). Mice were maintained on a standard 12:12 light/dark cycle (lights on from 0600 hours to 1800 hours) in a temperature controlled environment (23°±2° C.) for the duration of the study. Additionally, mice were housed in groups of 4-5 mice/cage, of which all mice were routinely monitored by the animal care staff under the direction of the institutional veterinarian, fed standard rodent chow and water ad libitum, with cages and bedding changed every 7 days. All procedures were approved by the Institutional Animal Care and Use Committee (IACUC) of the University of New Mexico Health Sciences Center, conducted in accordance to the NIH Guidelines for the Care and Use of Laboratory Animals, and closely adhered to guidelines from the International Association for the Study of Pain for the use of animals in research (Foundation for Biomedical Research, The Biomedical Investigator's Handbook for Researchers Using Animal Models. Washington, D.C.: FBR, 1987. WWW: http://www.fbresearch.org/).
This study utilized a modified version of a well-established rat peripheral nerve injury model in which pathological sensitivity to light touch, clinically termed allodynia, is induced through a chronic constriction injury (CCI) (Bennett and Xie 1988). […] Under isoflurane anesthesia (1.5-2.0% volume in oxygen, 2.0 l/min), the dorsal left thigh was shaved and cleaned using 70% Ethanol (EtOH) that was air dried prior to surgery. Utilizing a small incision over the posterior thigh, remaining […] below the femur bone, from hip bone to the patella, the muscle fascia of the mouse was exposed. Using aseptic procedures, a blunt dissection was performed to carefully isolate the sciatic nerve by separating the overlying muscular fascia. Sterile plastic probes were then used to locate and lift the sciatic nerve from its pocket within the muscle tissue. Mice were then subjected to unilateral loose ligation of the sciatic nerve with three 5-0 chromic gut sutures (Ethicon; Somerville, N.J., Cat #634G) which were snugly tied around the sciatic nerve (avoiding pinching) proximal to the trifurcation with 1.5 mm spacing between sutures. Throughout the duration of the surgery, sterile 0.9% isotonic saline (Hospira; Cat #NDC 0409-4888-03) was irrigated over the sciatic nerve to prevent dehydration. Sham surgery followed the same CCI surgical procedure identically but without ligation. Upon ligation, the sciatic nerve was gently placed back into its correct anatomical position using the sterile plastic probes, and the overlying muscle fascia was stitched closed using one 4-0 sterile silk sutures (Ethicon; Somerville, N.J., Cat #83G). Wound clips (Kent Scientific Corp.; Cat #INS750344) were then utilized to seal the incision closed at which point the surgical procedure was complete. […] Body weight was monitored prior to and after surgery.
Upon a 7-14 day acclimation to the testing environment, mice were subjected to a habituation period. The habituation period included placing the mice atop a testing rack within the first 4 hours of the light cycle (lights on from 0600 hours to 1800 hours) in a sound and temperature (23°±2° C.) controlled environment, allowing full access to the plantar hindpaw. Mice were exposed to four separate habitation periods for approximately 45 min/day.

[1] = tested on: TLR4-mediated IL-1β release in THP-1 cells; settings: for IL-1β release in the presence of LPS stimulation / basal cellular levels of IL-1β: THP-1 cells; for basal cellular levels of IL-1β: pramipexole alone, no LPS
Protocol: The assay was performed according to the manufacturer's instructions.

[2] = CCI mice, i.v. day 10 post surgery

CCCN[C@H]1CCc2nc(N)sc2C1 [Pramipexole, (6S)-6-N-propyl-4,5,6,7-tetrahydro-1,3-benzothiazole-2,6-diamine]
efficacy on hindpaw withdraw thresholds, hours 24-72 post-injection (allodynia in CCI mice; CCI mice, i.v. 0.5 μg): complete dissipation in the efficacy
time post-injection by which mice returned to allodynia (allodynia in CCI mice; CCI mice, i.v. 0.5 μg): ≤ 24 h
time to complete reversal from allodynia (allodynia in CCI mice; CCI mice, i.v. 0.5 μg, day 10 post-surgery): ≤ 2 h
efficacy on hindpaw withdraw thresholds, hours 24-72 post-injection (allodynia in CCI mice; CCI mice, i.v. 5 μg): complete dissipation in the efficacy
time post-injection by which mice returned to allodynia (allodynia in CCI mice; CCI mice, i.v. 5 μg): ≤ 24 h
time to complete reversal from allodynia (allodynia in CCI mice; CCI mice, i.v. 5 μg, day 10 post-surgery): ≤ 2 h
duration of efficacy (allodynia in CCI mice; [2]): up to 2 hours
time of maximal efficacy post-injection (allodynia in CCI mice; [2]): 2 h
time to complete reversal from allodynia (allodynia in CCI mice; CCI mice, i.v. day 10 post surgery, dose not given in FIG. 1 legend): ≤ 1 h
effect on allodynia (hindpaw absolute threshold) (allodynia in CCI mice): completely reversed from allodynia
effect on allodynia (hindpaw absolute threshold) (allodynia in CCI mice; listed as pramipexole): completely abolishes allodynia
IL-1β release in the presence of LPS stimulation ([1]; 5 pg pramipexole plus LPS): significantly blunts
IL-1β release in the presence of LPS stimulation ([1]; 500 pg pramipexole plus LPS): significantly blunts
basal cellular levels of IL-1β ([1]; 5 pg): does not significantly alter
basal cellular levels of IL-1β ([1]; 500 pg): does not significantly alter
TLR4-IL-1b activation pathway ([1]; cell-based assay using human THP-1 cells): inhibits the TLR4-IL-1b activation pathway
